≈ marks a conversion by molar mass, not a printed value. Where “and” joins values, the source holds several entries; their conditions need not be identical. Equal values may be shown once. Read-outs that look alike come from different tables or passages of the source.
Experiments:
L1210 leukemia = assay: Lymphoid Leukemia L1210, survival of tumored mice; format: in vivo, CD2F1 mice; settings: for response vs control in vivo at 25 mg/kg: 25 mg/kg i.p.; for response vs control in vivo at 400 mg/kg: 400 mg/kg i.p.; for response vs control in vivo at 200 mg/kg: 200 mg/kg i.p.; for response vs control in vivo at 50 mg/kg: 50 mg/kg i.p.
How it was run: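 Male CD2 F1 mice, six per group, received 10^5 L1210 cells i.p. on day 0. Compounds in hydroxypropylcellulose, saline/Tween 80 or saline were given i.p. at various doses once daily on days 1-9, with vehicle controls.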

[1] = system: human colon carcinoma cells HCT-15; assay: Human colon tumor test in vitro, HCT-15 cell growth inhibition; format: cell-based; settings: HCT-15 cells, compound day 1 to day 4; for IC50: Homo sapiens, HCT-15, 72 h, read-out: in vitro HCT-15 ID50 (50 percent inhibition of number of doublings); for in vitro HCT-15 ID50 (50 percent inhibition of number of doublings): 4320 min
Experimental: The compound of this invention were also tested for their ability to inhibit the growth of human colon carcinoma cells in vitro.
The human colon carcinoma cells, designated HCT-15, were derived from a specimen of an adenocarcinoma of human colon removed during surgery. The cells were grown in Roswell Park Medical Institute (RPMI) Medium 1640 supplemented with 10% heat inactivated fetal calf serum, penicillin (100 units/ml), streptomycin (100 μg/ml), gentamicin (20 μg/ml), fungizone (25 μg/ml), 0.075 percent sodium bicarbonate, […] 4-(2-hydroxyethyl)-1-piperazineethanesulfonic acid and […] N-tris(hydroxymethyl)methylglycine. […] On day 1 cells from sample dishes were harvested using trypsin (0.25%) treatment and counted with a hemocytometer to determine the number of cells per dish at the time of the addition of the compounds. Compounds of this invention were added in varying concentrations to other cultures. On day 4, treated and control cultures were harvested by trypsin treatment and the number of cells was determined. The number of doublings for the control cells was determined from the cell numbers on days 1 and 4. The ID50, the concentration of compound required to inhibit by 50 percent the number of doublings, was then calculated from the dose-response curve in which cell numbers were plotted on log-log paper against compound concentrations in micrograms per ml.

[2] = Mus musculus, L1210, ip, 720 h, 75 mg/kg i.p., read-out: L1210 Leukemia % T/C (median survival time)
[3] = Mus musculus, L1210, ip, 720 h, nonoptimal Q1DX9 instead of Q3DX9, read-out: L1210 Leukemia % T/C (median survival time)
[4] = Mus musculus, L1210, ip, 720 h, read-out: L1210 Leukemia % T/C (median survival time)
[5] = Mus musculus, L1210, ip, 720 h, 100 mg/kg i.p., read-out: L1210 Leukemia % T/C (median survival time)
[6] = Mus musculus, L1210, ip, 720 h, 37.5 mg/kg i.p., nonoptimal Q1DX9 instead of Q3DX9, read-out: L1210 Leukemia % T/C (median survival time)

Row | Compound | IC50 [1] [µg/mL] | in vitro HCT-15 ID50 (50 percent inhibition of number of doublings) [1] | further results
1 | O=C(O)c1cc(-c2ccc(Oc3ccc(F)cc3)cc2)nc2ccc(F)cc12 [Example 187] | < 0.5 | – | response vs control in vivo at 75 mg/kg (L1210 leukemia; [2]): 131%
2 | Cc1c(-c2ccc(Sc3ccccc3)cc2)nc2ccc(Cl)cc2c1C(=O)O [Example 173] | – | < 0.50 µg/mL | response vs control in vivo at 25 mg/kg (L1210 leukemia; [3]): 122%
3 | Cc1c(-c2ccc(OCc3ccccc3)cc2)nc2ccc(F)cc2c1C(=O)O [Example 16] | 1 (≈ 2.58 µM) | – | response vs control in vivo at 400 mg/kg (L1210 leukemia; [4]): 190%
4 | CCc1ccc2nc(-c3ccc(-c4ccccc4)cc3)c(C)c(C(=O)O)c2c1 [Example 141] | – | < 0.50 µg/mL | L1210 Leukemia % T/C (median survival time) (L1210 leukemia; 75 mg/kg i.p.): 139%
5 | Cc1c(-c2ccc(Oc3ccccc3)cc2)nc2ccc(Br)cc2c1C(=O)O [Example 53] | < 0.5 | – | response vs control in vivo at 75 mg/kg (L1210 leukemia; [2]): 136%
6 | O=C(O)c1cc(-c2ccc(C3CCCCC3)cc2)nc2ccc(Cl)cc12 [Example 4] | 0.48 (≈ 1.31 µM) | – | response vs control in vivo at 200 mg/kg (L1210 leukemia; [4]): 128%
7 | Cc1c(-c2ccc(-c3ccccc3F)cc2)nc2ccc(F)cc2c1C(=O)O [Example 176] | – | < 0.50 µg/mL and 0.41 µg/mL | response vs control in vivo at 37 mg/kg (L1210 leukemia; Mus musculus, L1210, ip, 720 h, 37 mg/kg i.p., read-out: L1210 Leukemia % T/C (median survival time)): 175%
8 | CCCCCCCCCCc1ccc(-c2nc3ccc(F)cc3c(C(=O)O)c2C)cc1 [Example 97] | – | 0.14 µg/mL | response vs control in vivo at 25 mg/kg (L1210 leukemia; [3]): 110%
9 | Cc1c(-c2ccc(C3CCCCC3)cc2)nc2ccc(Cl)cc2c1C(=O)O [Example 93] | – | 0.06 µg/mL and 0.04 µg/mL | response vs control in vivo at 50 mg/kg (L1210 leukemia; [3]): 101%
10 | CCc1c(-c2ccc(C(C)CC)cc2)nc2ccc(F)cc2c1C(=O)O (stereo not drawn) [Example 17] | – | 0.65 µg/mL | response vs control in vivo at 400 mg/kg (L1210 leukemia; [4]): 136%
11 | CCc1ccc(-c2ccc(-c3nc4ccc(F)cc4c(C(=O)O)c3C)cc2)cc1 [Example 130] | – | > 1.0 µg/mL | response vs control in vivo at 50 mg/kg (L1210 leukemia; [4]): 132%
12 | Cc1c(-c2ccc(SCc3ccccc3)cc2)nc2ccc(F)cc2c1C(=O)O [Example 26] | < 0.5 | – | response vs control in vivo at 300 mg/kg (L1210 leukemia; Mus musculus, L1210, ip, 720 h, 300 mg/kg i.p., read-out: L1210 Leukemia % T/C (median survival time)): 136%
13 | Cc1c(-c2ccc(-c3ccccc3)cc2)nc2cc(Cl)ccc2c1C(=O)O [Example 49] | > 5 | – | response vs control in vivo at 200 mg/kg (L1210 leukemia; [4]): 174%
14 | Cc1c(-c2ccc(Oc3ccccc3)cc2)nc2ccc(F)cc2c1C(=O)O [Example 11] | – | 0.19 µg/mL | response vs control in vivo at 25 mg/kg (L1210 leukemia; [4]): 176%
15 | CSc1ccc2nc(-c3ccc(-c4ccccc4)cc3)c(C)c(C(=O)O)c2c1 [Example 161] | > 1 | – | response vs control in vivo at 100 mg/kg (L1210 leukemia; [5]): 148%
16 | Cc1c(-c2ccc(Oc3ccccc3)cc2)nc2ccc(F)cc2c1C(=O)O [Example 101] | – | 0.41 µg/mL | response vs control in vivo at 50 mg/kg (L1210 leukemia; [4]): 154%
17 | Cc1c(-c2cc(-c3ccccc3)cs2)nc2ccc(F)cc2c1C(=O)O [Example 44] | < 0.1 | – | response vs control in vivo at 100 mg/kg (L1210 leukemia; [5]): 136%
18 | Cc1ccc2nc(-c3ccc(-c4ccccc4)cc3)c(C)c(C(=O)O)c2c1Cl [Example 83] | > 1 | – | response vs control in vivo at 100 mg/kg (L1210 leukemia; [5]): 198%

Row | Compound | IC50 [1] [µg/mL] | in vitro HCT-15 ID50 (50 percent inhibition of number of doublings) [1] | further results
19 | Cc1c(-c2ccc(-c3ccccc3)cc2)nc2cc(Cl)c(Cl)cc2c1C(=O)O [Example 137] | – | > 5.00 µg/mL | response vs control in vivo at 50 mg/kg (L1210 leukemia; [3]): 107%
20 | Cc1cc2c(C(=O)O)c(C)c(-c3ccc(-c4ccccc4)cc3)nc2cc1Cl [Example 148] | – | > 5.00 µg/mL | response vs control in vivo at 37.5 mg/kg (L1210 leukemia; [6]): 102%
21 | O=C(O)c1cc(-c2ccc(-c3ccccc3)cc2)nc2ccc(F)cc12 [Example 33] | < 0.5 | – | response vs control in vivo at 200 mg/kg (L1210 leukemia; [4]): 170%
22 | Cc1ccc2nc(-c3ccc(C4CCCCC4)cc3)c(C)c(C(=O)O)c2c1 [Example 6] | – | 0.24 µg/mL | response vs control in vivo at 400 mg/kg (L1210 leukemia; [4]): 162%
23 | CCc1c(-c2ccc(C3CCCCC3)cc2)nc2ccc(C)cc2c1C(=O)O [Example 105] | – | 0.33 µg/mL | response vs control in vivo at 12.5 mg/kg (L1210 leukemia; Mus musculus, L1210, ip, 720 h, 12.5 mg/kg i.p., nonoptimal Q1DX9 instead of Q3DX9, read-out: L1210 Leukemia % T/C (median survival time)): 108%
24 | Cc1c(-c2ccc(C3CCCCC3)cc2)nc2ccc(F)cc2c1C(=O)O [Example 181] | – | < 0.50 µg/mL | response vs control in vivo at 37.5 mg/kg (L1210 leukemia; [6]): 108%
25 | Cc1c(-c2ccc(-c3ccc(F)cc3)cc2)nc2ccc(F)cc2c1C(=O)O [Example 177] | – | < 0.50 µg/mL | L1210 Leukemia % T/C (median survival time) (L1210 leukemia; 37.5 mg/kg i.p.): 172%
26 | CCCCCCCCCCc1ccc(-c2nc3ccc(F)cc3c(C(=O)O)c2C)cc1 [Example 7] | – | 2.30 µg/mL | response vs control in vivo at 200 mg/kg (L1210 leukemia; [4]): 136%
27 | Cc1c(-c2ccc(-c3ccccc3)cc2)nc2ccc(F)c(Cl)c2c1C(=O)O [Example 81, 2-(4-Biphenyl)-5-chloro-6-fluoro-3-methyl-4-quinolinecarboxylic acid] | < 0.5 | – | response vs control in vivo at 25 mg/kg (L1210 leukemia; [4]): 191%
28 | Cc1c(-c2ccc(-c3ccc(F)cc3)cc2)nc2ccc(F)cc2c1C(=O)O [Example 121] | – | < 0.50 µg/mL | response vs control in vivo at 18 mg/kg (L1210 leukemia; Mus musculus, L1210, ip, 720 h, 18 mg/kg i.p., read-out: L1210 Leukemia % T/C (median survival time)): 175%
29 | Cc1c(-c2ccc(-c3ccccc3)cc2)nc2cc(Cl)ccc2c1C(=O)O [Example 139] | – | < 5.00 µg/mL | response vs control in vivo at 100 mg/kg (L1210 leukemia; [5]): 146%
30 | Cc1c(-c2ccc(C3CCCCC3)cc2)nc2ccc(Br)cc2c1C(=O)O [Example 45] | – | 0.13 µg/mL | response vs control in vivo at 400 mg/kg (L1210 leukemia; [4]): 160%
31 | Cc1c(-c2ccc(-c3ccccc3)cc2)nc2ccc(Cl)cc2c1C(=O)O [Example 109] | – | < 0.50 µg/mL | response vs control in vivo at 100 mg/kg (L1210 leukemia; [5]): 172%
32 | Cc1c(-c2ccc(Cc3ccccc3)cc2)nc2ccc(Cl)cc2c1C(=O)O [Example 112] | < 0.5 | – | response vs control in vivo at 25 mg/kg (L1210 leukemia; [4]): 128%
33 | Cc1ccc(-c2ccc(-c3nc4ccc(F)c(Cl)c4c(C(=O)O)c3C)cc2)cc1 [Example 168] | 0.04 (≈ 0.0986 µM) | – | L1210 Leukemia % T/C (median survival time) (L1210 leukemia; 100 mg/kg i.p.): 148%
34 | Cc1ccc2c(C(=O)O)c(C)c(-c3ccc(-c4ccccc4)cc3)nc2c1 [Example 145] | < 0.5 | – | response vs control in vivo at 75 mg/kg (L1210 leukemia; [2]): 132%
35 | Cc1c(-c2ccc(-c3ccccc3F)cc2)nc2ccc(F)cc2c1C(=O)OCCN(C)C [Example 197, 6-Fluoro-2-(2'-fluoro-1,1'-biphenyl-4-yl)-3-methyl-[(2dimethylamino)ethyl]ester-4-quinolinecarboxylic acid] | – | < 0.01 µg/mL | response vs control in vivo at 50 mg/kg (L1210 leukemia; [4]): 179%
36 | CCCCCCc1ccc(-c2nc3ccc(F)cc3c(C(=O)O)c2C)cc1 [Example 8] | 0.4 (≈ 1.09 µM) | – | response vs control in vivo at 400 mg/kg (L1210 leukemia; [4]): 147%
